In paper PMC9820167, “Design and Synthesis of Conformationally Flexible Scaffold as Bitopic Ligands for Potent D3-Selective Antagonists” (International Journal of Molecular Sciences, 2022):
Like-named read-outs stand apart in the source and are kept apart here.

Experiments:
Opioid KOR = Opioid KOR (Homo sapiens, UniProt P41145); assay: PDSP binding screen; conditions: for inhibition at 10 µM: read-out: Ki (nM) or % inhibition at 10 µM: KOR
Serotonin 5-HT1A = target: T1, Serotonin 5-HT1A (Homo sapiens, UniProt P08908); assay: PDSP binding screen
T1 sequence (P08908 1-422): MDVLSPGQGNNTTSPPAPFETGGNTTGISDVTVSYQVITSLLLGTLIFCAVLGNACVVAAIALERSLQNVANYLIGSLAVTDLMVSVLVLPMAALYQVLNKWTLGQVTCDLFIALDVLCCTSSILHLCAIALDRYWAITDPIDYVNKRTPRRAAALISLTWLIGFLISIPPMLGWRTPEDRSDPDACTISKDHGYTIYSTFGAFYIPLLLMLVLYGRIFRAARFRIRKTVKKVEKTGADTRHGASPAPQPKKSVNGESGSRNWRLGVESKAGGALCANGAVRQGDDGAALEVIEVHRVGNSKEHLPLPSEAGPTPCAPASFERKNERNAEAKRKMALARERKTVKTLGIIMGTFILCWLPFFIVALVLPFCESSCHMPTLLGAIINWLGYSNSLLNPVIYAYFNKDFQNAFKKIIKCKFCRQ

Muscarinic M5 = target: T2, Muscarinic M5 (Homo sapiens, UniProt P08912); assay: PDSP binding screen; conditions: for inhibition at 10 µM: read-out: Ki (nM) or % inhibition at 10 µM: M5
T2 sequence (P08912 1-532): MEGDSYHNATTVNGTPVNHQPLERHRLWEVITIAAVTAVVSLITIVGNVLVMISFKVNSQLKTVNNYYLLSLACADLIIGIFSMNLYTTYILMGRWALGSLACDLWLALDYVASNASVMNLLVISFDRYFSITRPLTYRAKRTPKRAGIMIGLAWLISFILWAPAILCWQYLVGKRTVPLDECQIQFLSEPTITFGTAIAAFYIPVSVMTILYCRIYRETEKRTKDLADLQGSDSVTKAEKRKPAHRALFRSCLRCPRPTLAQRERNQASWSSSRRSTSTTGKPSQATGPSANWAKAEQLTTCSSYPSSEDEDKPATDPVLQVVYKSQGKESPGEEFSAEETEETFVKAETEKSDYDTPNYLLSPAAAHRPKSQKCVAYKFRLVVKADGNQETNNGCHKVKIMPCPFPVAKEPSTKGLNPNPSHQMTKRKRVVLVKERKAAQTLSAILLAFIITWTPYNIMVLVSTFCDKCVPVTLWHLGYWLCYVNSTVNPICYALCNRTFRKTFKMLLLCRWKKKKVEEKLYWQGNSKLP

[1] = target: Dopamine active transporter (DAT) (Homo sapiens, UniProt Q01959); assay: PDSP binding screen
Dopamine active transporter (DAT), sequence (Q01959 whole entry, species assumed): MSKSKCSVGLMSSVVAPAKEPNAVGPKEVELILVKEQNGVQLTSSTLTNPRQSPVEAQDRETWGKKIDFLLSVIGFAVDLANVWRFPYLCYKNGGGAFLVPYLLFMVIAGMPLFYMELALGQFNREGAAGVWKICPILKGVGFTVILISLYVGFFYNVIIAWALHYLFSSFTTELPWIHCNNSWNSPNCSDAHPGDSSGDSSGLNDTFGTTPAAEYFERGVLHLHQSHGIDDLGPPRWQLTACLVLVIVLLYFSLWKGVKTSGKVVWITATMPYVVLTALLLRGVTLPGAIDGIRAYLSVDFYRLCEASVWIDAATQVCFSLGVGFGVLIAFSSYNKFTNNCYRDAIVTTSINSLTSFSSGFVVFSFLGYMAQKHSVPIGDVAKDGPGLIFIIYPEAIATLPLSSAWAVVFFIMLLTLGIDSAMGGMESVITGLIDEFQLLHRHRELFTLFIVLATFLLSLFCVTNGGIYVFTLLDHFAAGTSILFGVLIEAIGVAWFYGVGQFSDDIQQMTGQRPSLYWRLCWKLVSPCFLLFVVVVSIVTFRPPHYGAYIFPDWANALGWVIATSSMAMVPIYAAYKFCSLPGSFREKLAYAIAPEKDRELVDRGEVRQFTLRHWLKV

Dopamine D4 = target: T3, Dopamine D4 (Homo sapiens, UniProt P21917); assay: PDSP binding screen
T3 sequence (P21917 1-419): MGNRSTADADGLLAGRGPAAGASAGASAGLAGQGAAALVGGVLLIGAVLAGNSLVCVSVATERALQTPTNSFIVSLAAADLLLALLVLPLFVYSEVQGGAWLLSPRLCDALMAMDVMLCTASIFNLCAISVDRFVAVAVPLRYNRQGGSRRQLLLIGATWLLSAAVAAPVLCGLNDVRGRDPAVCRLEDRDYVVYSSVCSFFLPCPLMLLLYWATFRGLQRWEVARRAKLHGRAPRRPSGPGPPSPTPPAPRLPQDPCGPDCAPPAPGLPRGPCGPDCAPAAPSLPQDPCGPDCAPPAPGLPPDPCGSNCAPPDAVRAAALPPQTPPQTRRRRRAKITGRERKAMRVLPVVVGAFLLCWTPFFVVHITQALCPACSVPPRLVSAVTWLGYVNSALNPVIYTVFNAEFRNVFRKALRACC

Serotonin 5-HT1D = Serotonin 5-HT1D (Homo sapiens, UniProt P28221); assay: PDSP binding screen
Serotonin 5-HT1D, sequence (P28221 whole entry): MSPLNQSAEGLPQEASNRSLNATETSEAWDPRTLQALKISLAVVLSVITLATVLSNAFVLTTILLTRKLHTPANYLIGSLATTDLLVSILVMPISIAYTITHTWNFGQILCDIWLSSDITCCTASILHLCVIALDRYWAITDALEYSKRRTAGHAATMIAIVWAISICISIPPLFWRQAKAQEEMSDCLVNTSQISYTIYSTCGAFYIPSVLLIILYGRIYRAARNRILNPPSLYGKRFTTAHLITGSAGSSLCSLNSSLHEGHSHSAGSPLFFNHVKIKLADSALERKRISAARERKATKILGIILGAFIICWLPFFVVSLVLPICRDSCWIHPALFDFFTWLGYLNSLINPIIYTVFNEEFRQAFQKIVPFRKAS

Adrenergic beta1 = Adrenergic beta1 (Homo sapiens, UniProt P08588); assay: PDSP binding screen; conditions: for inhibition at 10 µM: read-out: Ki (nM) or % inhibition at 10 µM: beta1
Adrenergic beta1, sequence (P08588 whole entry): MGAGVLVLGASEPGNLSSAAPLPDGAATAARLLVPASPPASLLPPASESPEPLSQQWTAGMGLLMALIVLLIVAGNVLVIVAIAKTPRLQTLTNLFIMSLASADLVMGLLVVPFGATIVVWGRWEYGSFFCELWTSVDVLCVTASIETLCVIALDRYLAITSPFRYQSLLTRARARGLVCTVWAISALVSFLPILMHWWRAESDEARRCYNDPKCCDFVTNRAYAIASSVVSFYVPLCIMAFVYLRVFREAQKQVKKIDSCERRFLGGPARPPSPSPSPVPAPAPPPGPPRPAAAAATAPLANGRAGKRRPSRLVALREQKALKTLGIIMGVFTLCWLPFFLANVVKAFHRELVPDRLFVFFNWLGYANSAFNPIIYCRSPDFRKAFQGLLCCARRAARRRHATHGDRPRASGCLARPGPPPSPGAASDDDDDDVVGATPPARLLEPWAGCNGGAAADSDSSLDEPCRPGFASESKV

human D2 receptors = target: T4, human D2 receptors (Homo sapiens, UniProt P14416); assay: Radioligand binding assay with [125I]IABN, D2 receptor
T4 construct: expressed in transfected cells; host or cells: HEK293
T4 sequence (P14416 whole entry): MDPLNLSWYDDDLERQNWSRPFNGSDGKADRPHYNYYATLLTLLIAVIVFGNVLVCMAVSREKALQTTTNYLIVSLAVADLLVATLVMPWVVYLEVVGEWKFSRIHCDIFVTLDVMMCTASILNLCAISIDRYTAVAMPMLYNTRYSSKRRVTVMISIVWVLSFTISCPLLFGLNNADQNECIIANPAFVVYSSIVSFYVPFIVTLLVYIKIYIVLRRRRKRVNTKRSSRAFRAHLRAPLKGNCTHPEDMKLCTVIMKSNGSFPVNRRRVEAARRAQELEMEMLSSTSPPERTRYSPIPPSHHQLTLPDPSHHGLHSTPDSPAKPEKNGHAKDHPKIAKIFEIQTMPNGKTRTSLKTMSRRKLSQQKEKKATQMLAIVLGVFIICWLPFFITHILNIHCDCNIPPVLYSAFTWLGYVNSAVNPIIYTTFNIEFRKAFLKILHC
Procedure: Two different assays were used to evaluate the properties of the analogs described above. The receptor binding affinity was measured by radioligand binding assays using [^125I]IABN with D2 or D3 receptors highly expressed HEK293 cells. The functional activity of the analogs was determined using a β-arrestin recruitment assay. […] The results of the antagonist mode assay are reported as IC50 values.
Ki values for D2 and D3 receptors were measured using [^125I]IABN in human D2 and D3 receptors expressed in HEK cells, respectively. A filtration binding assay was used to characterize membrane-associated receptor binding properties. The details for the procedures were described in the literature.

Dopamine D3 = Dopamine D3 (Homo sapiens, UniProt P35462); assay: PDSP binding screen
Dopamine D3, sequence (P35462 whole entry): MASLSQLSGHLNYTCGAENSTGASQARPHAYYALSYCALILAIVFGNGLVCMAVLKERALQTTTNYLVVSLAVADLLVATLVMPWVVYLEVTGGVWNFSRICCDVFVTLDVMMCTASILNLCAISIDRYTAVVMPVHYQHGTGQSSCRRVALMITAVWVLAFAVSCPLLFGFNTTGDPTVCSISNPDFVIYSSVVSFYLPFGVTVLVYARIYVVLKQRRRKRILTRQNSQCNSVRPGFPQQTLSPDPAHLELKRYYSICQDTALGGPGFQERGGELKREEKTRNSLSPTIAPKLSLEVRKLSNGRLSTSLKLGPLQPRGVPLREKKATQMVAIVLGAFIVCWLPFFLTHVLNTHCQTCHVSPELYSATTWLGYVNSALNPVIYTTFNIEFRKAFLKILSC

[2] = [125I]IABN, D2 receptors expressed in HEK cells, mean ± SEM, three experiments, HCl salts, read-out: Ki ± SEM (nM) D2

Opioid KOR, sequence (P41145 whole entry): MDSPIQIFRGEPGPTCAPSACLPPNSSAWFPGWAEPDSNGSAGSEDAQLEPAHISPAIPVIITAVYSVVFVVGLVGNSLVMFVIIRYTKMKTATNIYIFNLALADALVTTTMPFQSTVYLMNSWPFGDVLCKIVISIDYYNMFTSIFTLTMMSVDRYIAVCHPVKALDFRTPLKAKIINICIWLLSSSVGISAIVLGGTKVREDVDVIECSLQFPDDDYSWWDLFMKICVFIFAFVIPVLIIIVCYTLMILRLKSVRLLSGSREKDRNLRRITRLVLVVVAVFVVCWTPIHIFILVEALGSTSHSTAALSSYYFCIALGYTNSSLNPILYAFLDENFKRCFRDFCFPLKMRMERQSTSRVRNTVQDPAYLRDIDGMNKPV

SMILES | Ki (Opioid KOR) [nM] | Ki (Serotonin 5-HT1A) [nM] | Ki (Muscarinic M5) [nM] | Ki [1] [nM] | Ki (Dopamine D4) [nM] | Ki (Serotonin 5-HT1D) [nM] | Ki (Adrenergic beta1) [nM] | Ki (human D2 receptors) [nM] | Ki (Dopamine D3) [nM] | inhibition at 10 µM (Adrenergic beta1) [%] | Ki (human D2 receptors; [2]) [nM] | inhibition at 10 µM (Muscarinic M5) [%] | inhibition at 10 µM (Opioid KOR) [%] | inhibition at 10 µM ([1]; read-out: Ki (nM) or % inhibition at 10 µM: Dopamine active transporter (DAT)) [%] | inhibition at 10 µM (Dopamine D4; read-out: Ki (nM) or % inhibition at 10 µM: D4) [%] | inhibition at 10 µM (Serotonin 5-HT1D; read-out: Ki (nM) or % inhibition at 10 µM: 5-HT1D) [%]
CCN(CCCNC(=O)c1ccc(-c2cccs2)cc1)CCNC(=O)c1cc(Br)cc(OC)c1OC [9a, 5-Bromo-N-(2-(ethyl(3-(4-(thiophen-2-yl)benzamido)propyl)amino)ethyl)-2,3-dimethoxybenzamide] | 107 | 1740 | 5040 | 87 | 579 | 1010 | 5900 | 169 ± 4 | 0.83 |  |  |  |  |  |  | 
CCN(CCCNC(=O)c1ccc(-c2ccncc2)cc1)CCNC(=O)c1cc(Br)cc(OC)c1OC [21c, 5-Bromo-N-(2-(ethyl(3-(4-(pyridin-4-yl)benzamido)propyl)amino)ethyl)-2,3-dimethoxybenzamide] | 642 | 509 | 2390 | 57 | 2180 | 1150 |  |  | 0.36 | < 50 | 107 ± 5 |  |  |  |  | 
CCCN(CCCNC(=O)c1ccc(-c2cccs2)cc1)CCNC(=O)c1cc(Br)cc(OC)c1OC [20a, 5-Bromo-2,3-dimethoxy-N-(2-(propyl(3-(4-(thiophen-2-yl)benzamido)propyl)amino)ethyl)benzamide] | 116 | 194 |  | 511 | 938 | 449 | 3710 |  | 1.32 |  | 259 ± 23 | < 50 |  |  |  | 
CCN(CCCNC(=O)c1ccc(-c2ccsc2)cc1)CCNC(=O)c1cc(Br)cc(OC)c1OC [21g, 5-Bromo-N-(2-(ethyl(3-(4-(thiophen-3-yl)benzamido)propyl)amino)ethyl)-2,3-dimethoxybenzamide] | 170 | 3310 |  | 100 | 582 | 1820 | 1890 |  | 0.61 |  | 312 ± 18 | < 50 |  |  |  | 
CCN(CCCNC(=O)c1cn2ccccc2n1)CCNC(=O)c1cc(Br)cc(OC)c1OC [21e, N-(3-((2-(5-Bromo-2,3-dimethoxybenzamido)ethyl)(ethyl)amino)propyl)imidazo[1,2-a]pyridine-2-carboxamide] |  | 575 |  |  |  |  | 6520 |  | 0.46 |  | 142 ± 16 | < 50 | < 50 | < 50 | < 50 | < 50
CCN(CCCNC(=O)c1ccc2ccccc2c1)CCNC(=O)c1cc(Br)cc(OC)c1OC [21a, N-(3-((2-(5-Bromo-2,3-dimethoxybenzamido)ethyl)(ethyl)amino)propyl)-2-naphthamide] |  | 971 |  | 89 | 377 | 1200 |  |  | 0.19 | < 50 | 169 ± 12 | < 50 | < 50 |  |  | 
CCN(CCCNC(=O)c1cc2ccccc2[nH]1)CCNC(=O)c1cc(Br)cc(OC)c1OC [21d, N-(3-((2-(5-Bromo-2,3-dimethoxybenzamido)ethyl)(ethyl)amino)propyl)-1H-indole-2-carboxamide] | 2330 | 692 | 4220 | 90 | 239 | 1660 |  |  | 0.25 | < 50 | 148 ± 9 |  |  |  |  | 
CCN(CCCNC(=O)c1ccsc1)CCNC(=O)c1cc(Br)cc(OC)c1OC [21i, N-(3-((2-(5-Bromo-2,3-dimethoxybenzamido)ethyl)(ethyl)amino)propyl)thiophen-e-3-carboxamide] |  | 245 |  | 289 | 514 | 3140 |  |  | 0.28 | < 50 | 304 ± 7 | < 50 | < 50 |  |  | 
CCN(CCCNC(=O)c1cc2ccccc2n1C)CCNC(=O)c1cc(Br)cc(OC)c1OC [21j, N-(3-((2-(5-Bromo-2,3-dimethoxybenzamido)ethyl)(ethyl)amino)propyl)-1-methyl-1H-indole-2-carboxamide] |  | 961 |  | 390 | 878 | 1930 |  |  | 0.34 | < 50 | 192 ± 22 | < 50 | < 50 |  |  | 
